# Data reported in ChEMBL document CHEMBL4433196, “A novel delocalized lipophilic cation-chlorambucil conjugate inhibits P-glycoprotein in HepG2/ADM cells” (Bioorg Med Chem, 2017).
# Activity calls are given as the source filed them. The rule behind the calls is not given here.
# Key:
# [1] = Induction of apoptosis in human HepG2/ADM cells assessed as viable cells at 20 uM incubated for 72 hrs in presence of ADM by Annexin V-FITC/SYTOX Red staining based flow cytometric analysis (reference value: 88.7%); assay type: functional; settings: read-out: Activity
# [2] = Cytotoxicity against human HepG2/ADM cells assessed as cell growth inhibition incubated for 72 hrs by MTT assay; assay type: functional, cell-based
# [3] = Induction of apoptosis in human HepG2/ADM cells assessed as necrotic cells at 20 uM incubated for 72 hrs by Annexin V-FITC/SYTOX Red staining based flow cytometric analysis (Rvb =0%); assay type: functional
# [4] = Induction of apoptosis in human HepG2/ADM cells assessed as apoptotic cells at 20 uM incubated for 72 hrs in presence of ADM by Annexin V-FITC/SYTOX Red staining based flow cytometric analysis (reference value: 2.60%); assay type: functional
# [5] = Induction of apoptosis in human HepG2/ADM cells assessed as late apoptotic cells at 20 uM incubated for 72 hrs by Annexin V-FITC/SYTOX Red staining based flow cytometric analysis (Rvb =0.04%); assay type: functional
# [6] = Induction of apoptosis in human HepG2/ADM cells assessed as early apoptotic cells at 20 uM incubated for 72 hrs by Annexin V-FITC/SYTOX Red staining based flow cytometric analysis (reference value: 5.52%); assay type: functional
# NIH3T3 = assay: Cytotoxicity against mouse NIH/3T3 cells assessed as cell growth inhibition incubated for 72 hrs by MTT assay; assay type: cell-based; settings: NIH3T3, 72 h
# HepG2 = assay: Cytotoxicity against human HepG2 cells assessed as cell growth inhibition incubated for 72 hrs by MTT assay; assay type: functional, cell-based; settings: HepG2, 72 h
# [7] = Induction of apoptosis in human HepG2/ADM cells assessed as viable cell at 20 uM incubated for 72 hrs by Annexin V-FITC/SYTOX Red staining based flow cytometric analysis (reference value: 94.4%); assay type: functional
# [8] = Induction of apoptosis in human HepG2/ADM cells assessed as necrotic cells at 20 uM incubated for 72 hrs in presence of ADM by Annexin V-FITC/SYTOX Red staining based flow cytometric analysis (Rvb =0.1%); assay type: functional
# L02 = assay: Cytotoxicity against human L02 cells assessed as cell growth inhibition incubated for 72 hrs by MTT assay; assay type: cell-based; settings: L02, 72 h
# [9] = Induction of apoptosis in human HepG2/ADM cells assessed as early apoptotic cells at 20 uM incubated for 72 hrs in presence of ADM by Annexin V-FITC/SYTOX Red staining based flow cytometric analysis (reference value: 8.58%); assay type: functional
# [10] = biological target: T1, ATP-dependent translocase ABCB1 (Homo sapiens, UniProt P08183); assay: Inhibition of Pgp in human HepG2/ADM cells assessed as increase in intracellular ADM level at 20 uM incubated for 2 hrs by mitotracker 633 staining based inverted confocal microscopic analysis; assay type: cell-based
# [11] = Drug localization in cellular membrane of human HepG2 cells at 20 uM incubated for 2 hrs by mitotracker 633 staining based inverted confocal microscope; assay type: ADME, cell membranes; settings: hepg2, 2 h
# [12] = Drug localization in cellular membrane of human HepG2/ADM cells at 20 uM incubated for 2 hrs by mitotracker 633 staining based inverted confocal microscope; assay type: ADME, cell membranes
# HepG2/Adm [13] = assay: Downregulation of MDR1 mRNA in human HepG2/ADM cells at 5 to 20 uM incubated for 24 hrs by real time qPCR analysis; assay type: functional, cell-based
# [14] = Drug localization in mitochondria of human HepG2/ADM cells at 20 uM incubated for 2 hrs by mitotracker 633 staining based inverted confocal microscope; assay type: ADME
# [15] = Drug accumulation in human HepG2 cells at 10 uM incubated for 3 hrs by flow cytometric analysis; assay type: ADME, cell-based; settings: hepg2, 3 h
# [16] = Drug accumulation in human L02 cells at 10 uM incubated for 3 hrs by flow cytometric analysis; assay type: ADME, cell-based; settings: l02, 3 h
# [17] = Drug localization in mitochondria of human HepG2 cells at 20 uM incubated for 2 hrs by mitotracker 633 staining based inverted confocal microscope; assay type: ADME; settings: hepg2, 2 h
# HepG2/Adm [18] = assay: Downregulation of Pgp in human HepG2/ADM cells at 20 uM incubated for 48 hrs by flow cytometric analysis; assay type: functional, cell-based
# [19] = biological target: T1, ATP-dependent translocase ABCB1; assay: Inhibition of Pgp in human HepG2/ADM cells assessed as increase in intracellular ADM level at 20 uM incubated for 12 hrs by flow cytometric analysis; assay type: cell-based
# [20] = biological target: T1, ATP-dependent translocase ABCB1; assay: Inhibition of Pgp in human HepG2/ADM cells at 20 uM incubated for 2 hrs by mitotracker 633 staining based inverted confocal microscopy; assay type: cell-based
# HepG2/Adm [21] = assay: Downregulation of Pgp in human HepG2/ADM cells at 5 to 20 uM incubated for 48 hrs by Western blot analysis; assay type: functional, cell-based
# [22] = Potency index, ratio of IC50 for human HepG2/ADM cells to IC50 for human HepG2 cells; assay type: functional
# T1 sequence (P08183 whole entry): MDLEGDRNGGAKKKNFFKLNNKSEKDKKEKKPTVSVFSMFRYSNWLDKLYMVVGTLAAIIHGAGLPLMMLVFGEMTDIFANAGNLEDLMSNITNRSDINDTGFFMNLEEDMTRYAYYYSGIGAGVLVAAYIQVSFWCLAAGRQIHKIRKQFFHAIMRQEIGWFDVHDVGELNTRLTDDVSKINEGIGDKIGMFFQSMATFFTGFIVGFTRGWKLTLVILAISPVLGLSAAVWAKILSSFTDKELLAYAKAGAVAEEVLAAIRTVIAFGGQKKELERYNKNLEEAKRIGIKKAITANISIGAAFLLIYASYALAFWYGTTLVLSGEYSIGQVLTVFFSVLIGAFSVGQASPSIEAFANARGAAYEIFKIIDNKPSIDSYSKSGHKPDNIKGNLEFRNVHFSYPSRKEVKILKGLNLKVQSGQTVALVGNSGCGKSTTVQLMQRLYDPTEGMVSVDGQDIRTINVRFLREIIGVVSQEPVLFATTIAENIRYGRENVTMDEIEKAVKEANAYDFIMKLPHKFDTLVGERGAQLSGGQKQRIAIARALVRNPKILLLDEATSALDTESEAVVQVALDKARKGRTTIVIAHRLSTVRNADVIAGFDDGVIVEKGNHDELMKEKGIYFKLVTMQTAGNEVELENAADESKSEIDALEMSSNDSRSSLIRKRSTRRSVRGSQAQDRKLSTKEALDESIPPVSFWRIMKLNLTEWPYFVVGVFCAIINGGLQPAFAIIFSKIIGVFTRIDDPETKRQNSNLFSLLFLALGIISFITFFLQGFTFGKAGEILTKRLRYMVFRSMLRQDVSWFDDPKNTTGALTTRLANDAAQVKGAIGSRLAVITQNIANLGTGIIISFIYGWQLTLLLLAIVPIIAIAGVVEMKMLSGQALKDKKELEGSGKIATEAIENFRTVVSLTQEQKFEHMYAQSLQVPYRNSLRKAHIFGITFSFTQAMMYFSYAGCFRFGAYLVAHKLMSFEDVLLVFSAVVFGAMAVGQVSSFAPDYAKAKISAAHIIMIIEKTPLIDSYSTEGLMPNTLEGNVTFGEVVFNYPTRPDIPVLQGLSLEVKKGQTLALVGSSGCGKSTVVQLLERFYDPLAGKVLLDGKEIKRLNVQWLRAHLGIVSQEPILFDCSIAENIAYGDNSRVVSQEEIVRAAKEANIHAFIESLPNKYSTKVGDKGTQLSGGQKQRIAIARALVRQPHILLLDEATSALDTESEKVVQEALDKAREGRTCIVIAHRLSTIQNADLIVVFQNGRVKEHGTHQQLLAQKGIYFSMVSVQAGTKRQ
SMILES,viability at 20 µM [1] [%],IC50 [2] [µM],Activity [3] [%],Activity [4] [%],Activity [5] [%],Activity [6] [%],IC50 (NIH3T3) [µM],IC50 (HepG2) [µM],Activity [7] [%],Activity [8] [%],IC50 (L02) [µM],Activity [9] [%],other results
Cl.NCCC[n+]1ccc(/C=C/c2c[nH]c3ccc(F)cc23)cc1.[Br-],55.6,102,0.25,17,2.66,8.72,> 600,103,88.4,1.21,> 600,26.2,
O=C(CCCc1ccc(N(CCCl)CCCl)cc1)NCCC[n+]1ccc(/C=C/c2c[nH]c3ccc(F)cc23)cc1.[Br-],33.5,60.5,0.01,2.38,0.09,14.2,> 600,60,85.7,0,> 600,64,inhibition (INH) [10]: Active; Drug uptake [11]: Active; Drug uptake [12]: Active; Activity (HepG2/Adm [13]): Active; Drug uptake [14]: Active; Drug uptake [15]: Active; Drug uptake [16]: Not Active; Drug uptake [17]: Active; Activity (HepG2/Adm [18]): Active; inhibition (INH) [19]: Active; inhibition (INH) [20]: Active; Activity (HepG2/Adm [21]): Active
O=C(O)CCCc1ccc(N(CCCl)CCCl)cc1 [CHLORAMBUCIL],87.5,297,0.01,0.05,0.01,9.08,> 600,190,90.9,0,> 600,12.4,
COc1cccc2c1C(=O)c1c(O)c3c(c(O)c1C2=O)C[C@@](O)(C(=O)CO)C[C@@H]3O[C@H]1C[C@H](N)[C@H](O)[C@H](C)O1.Cl [DOXORUBICIN HYDROCHLORIDE],,144,,,,,,0.67,,,,,Ratio IC50 [22]: 215.4
